Biological target: T1, EZH2 within the PRC2 complex (Homo sapiens, UniProt Q15910)
T1 construct: FLAG; made in house; host or cells: Sf9 cells
Assay: EZH2 methyltransferase scintillation proximity assay (SPA) with PRC2 complex
Format: biochemical
Details: EZH2 inhibition, foregoing or analogous assay; unit inferred; read-out: IC50
Method: Compounds contained herein were evaluated for their ability to inhibit the methyltransferase activity of EZH2 within the PRC2 complex. Human PRC2 complex was prepared by co-expressing each of the 5 member proteins (FLAG-EZH2, EED, SUZ12, RbAp48, AEBP2) in Sf9 cells followed by co-purification. Enzyme activity was measured in a scintillation proximity assay (SPA) where a tritiated methyl group is transferred from 3H-SAM to a lysine residue on Histone H3 of a mononucleosome, purified from HeLa cells. Mononucleosomes were captured on SPA beads and the resulting signal is read on a ViewLux plate reader.
Part A. Compound Preparation
• 1. Prepare 10 mM stock of compounds from solid in 100% DMSO. • 2. Set up an 11-point serial dilution (1:3 dilution, top concentration 10 mM) in 100% DMSO for each test compound in a 384 well plate leaving columns 6 and 18 for DMSO controls. • 3. Dispense […] of compound from the dilution plate into reaction plates (Grenier Bio-One, 384-well, Cat #784075). Part B. Reagent Preparation Prepare the following solutions: • 1. 50 mM Tris-HCl, pH 8: Per 1 L of base buffer, combine 1 M Tris-HCl, pH 8 (50 mL) and distilled water (950 mL). • 2. […] 2× Enzyme Solution: Per 10 mL of 2× Enzyme Solution, combine 1× Assay Buffer and PRC2 complex to provide a final enzyme concentration of 10 nM. • 4. SPA Bead Suspension: Per 1 mL of SPA Bead Suspension, combine PS-PEI coated LEADSeeker beads (40 mg) and ddH2O (1 mL) to provide a final concentration of 40 mg/mL. • 5. 2× Substrate Solution: Per 10 mL of 2× Substrate Solution, combine 1× Assay Buffer (9728.55 uL), 800 ug/mL mononucleosomes (125 uL), 1 mM cold SAM (4 uL), and 7.02 uM 3H-SAM (142.45 uL; 0.55 mCi/mL) to provide a final concentration of 5 ug/mL nucleosomes, 0.2 uM cold SAM, and 0.05 uM 3H-SAM. • 6. 2.67× Quench/Bead Mixture: Per 10 mL of 2.67× Quench/Bead Mixture, combine ddH2O (9358 uL), 10 mM cold SAM (267 uL), 40 mg/mL Bead Suspension (375 uL) to provide a final concentration of 100 uM cold SAM and 0.5 mg/mL SPA beads. Part C. Assay Reaction in 384-well Grenier Bio-One Plates Compound Addition • 1. Dispense […] of 100× Compound to test wells (as noted above). • 2. Dispense […] of 100% DMSO to columns 6 & 18 for high and low controls, respectively. Assay • 1. […] Dispense 5 uL/well of 2× Enzyme Solution to columns 1-17, 19-24. • 3. Spin assay plates for ˜1 minute at 500 rpm. • 4. Stack the assay plates, covering the top plate. • 5. Incubate the compound/DMSO with the enzyme for 30 minutes at room temperature. • 6. Dispense 5 uL/well of 2× Substrate Solution to columns 1-24. • 7. Spin assay plates for ˜1 minute at 500 rpm. • 8. Stack the assay plates, covering the top plate. • 9. Incubate the assay plates at room temperature for 1 hour. Quench/Bead Addition • 1. Dispense 5 uL/well of the 3× Quench/Bead Mixture to columns 1-24. • 2. Seal the top of each assay plate with adhesive TopSeal. • 3. Spin assay plates for ˜1 minute at 500 rpm. • 4. Equilibrate the plates for >20 min. Read Plates • 1. Read the assay plates on the Viewlux Plate Reader utilizing the 613 nm emission filter with a 300 s read time. Reagent addition can be done manually or with automated liquid handler. • The final DMSO concentration in this assay is 1%. • The positive control is in column 6; negative control is in column 18. • Final starting concentration of compounds is 100 μM. Part D. Data Analysis
Percent inhibition was calculated relative to the DMSO control for each compound concentration and the resulting values were fit using standard IC50 fitting parameters within the ABASE data fitting software package.

T1 sequence (Q15910 whole entry): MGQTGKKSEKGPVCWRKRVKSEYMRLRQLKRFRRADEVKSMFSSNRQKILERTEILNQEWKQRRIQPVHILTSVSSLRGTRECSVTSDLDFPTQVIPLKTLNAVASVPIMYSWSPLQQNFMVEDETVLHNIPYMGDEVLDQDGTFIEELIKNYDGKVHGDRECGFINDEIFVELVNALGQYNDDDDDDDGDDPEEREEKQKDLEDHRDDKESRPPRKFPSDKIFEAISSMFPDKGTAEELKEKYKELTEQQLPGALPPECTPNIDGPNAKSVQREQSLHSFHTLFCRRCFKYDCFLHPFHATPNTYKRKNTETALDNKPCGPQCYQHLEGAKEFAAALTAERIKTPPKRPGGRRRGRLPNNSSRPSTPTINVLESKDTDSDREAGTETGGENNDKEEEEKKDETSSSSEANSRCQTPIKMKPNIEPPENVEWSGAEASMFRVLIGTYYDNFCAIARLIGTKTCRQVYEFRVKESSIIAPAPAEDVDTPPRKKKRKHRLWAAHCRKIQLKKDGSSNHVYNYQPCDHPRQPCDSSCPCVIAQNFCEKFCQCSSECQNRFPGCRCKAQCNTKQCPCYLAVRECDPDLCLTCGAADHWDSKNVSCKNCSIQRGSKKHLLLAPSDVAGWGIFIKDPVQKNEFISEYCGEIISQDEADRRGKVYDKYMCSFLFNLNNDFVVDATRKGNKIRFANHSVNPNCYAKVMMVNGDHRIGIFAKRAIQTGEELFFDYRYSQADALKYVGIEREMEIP
T1 sequence (O75530 whole entry partner): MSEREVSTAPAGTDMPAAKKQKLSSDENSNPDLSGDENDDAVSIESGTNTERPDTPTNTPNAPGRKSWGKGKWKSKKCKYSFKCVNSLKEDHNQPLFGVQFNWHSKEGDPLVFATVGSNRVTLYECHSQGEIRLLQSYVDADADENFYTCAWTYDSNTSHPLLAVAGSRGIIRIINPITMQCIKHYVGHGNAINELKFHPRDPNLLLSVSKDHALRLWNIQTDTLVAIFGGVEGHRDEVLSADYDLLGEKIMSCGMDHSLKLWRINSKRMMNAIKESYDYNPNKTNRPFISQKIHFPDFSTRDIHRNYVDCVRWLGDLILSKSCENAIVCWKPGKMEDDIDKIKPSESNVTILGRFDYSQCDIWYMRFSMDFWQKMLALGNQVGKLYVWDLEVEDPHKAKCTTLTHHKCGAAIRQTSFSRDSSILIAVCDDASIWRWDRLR
T1 sequence (Q15022 whole entry partner): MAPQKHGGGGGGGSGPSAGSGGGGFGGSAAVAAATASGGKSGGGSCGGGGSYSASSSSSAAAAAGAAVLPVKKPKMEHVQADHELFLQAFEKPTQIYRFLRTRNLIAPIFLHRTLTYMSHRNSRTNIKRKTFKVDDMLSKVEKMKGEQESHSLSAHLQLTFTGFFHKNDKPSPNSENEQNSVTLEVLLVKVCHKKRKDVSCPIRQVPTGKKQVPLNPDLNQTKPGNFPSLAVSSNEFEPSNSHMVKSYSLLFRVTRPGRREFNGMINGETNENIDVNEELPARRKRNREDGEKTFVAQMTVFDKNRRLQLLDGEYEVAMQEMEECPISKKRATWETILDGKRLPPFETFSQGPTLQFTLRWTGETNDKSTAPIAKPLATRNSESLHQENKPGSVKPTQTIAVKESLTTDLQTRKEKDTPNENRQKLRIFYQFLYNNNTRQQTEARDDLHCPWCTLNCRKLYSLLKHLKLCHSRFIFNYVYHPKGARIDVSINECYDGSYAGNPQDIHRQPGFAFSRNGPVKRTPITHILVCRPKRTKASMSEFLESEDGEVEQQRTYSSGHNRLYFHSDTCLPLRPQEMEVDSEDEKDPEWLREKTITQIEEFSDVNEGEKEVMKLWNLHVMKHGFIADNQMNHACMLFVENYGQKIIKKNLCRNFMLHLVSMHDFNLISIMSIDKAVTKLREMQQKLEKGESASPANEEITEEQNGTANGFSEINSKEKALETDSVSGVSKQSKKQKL
T1 sequence (Q09028 whole entry partner): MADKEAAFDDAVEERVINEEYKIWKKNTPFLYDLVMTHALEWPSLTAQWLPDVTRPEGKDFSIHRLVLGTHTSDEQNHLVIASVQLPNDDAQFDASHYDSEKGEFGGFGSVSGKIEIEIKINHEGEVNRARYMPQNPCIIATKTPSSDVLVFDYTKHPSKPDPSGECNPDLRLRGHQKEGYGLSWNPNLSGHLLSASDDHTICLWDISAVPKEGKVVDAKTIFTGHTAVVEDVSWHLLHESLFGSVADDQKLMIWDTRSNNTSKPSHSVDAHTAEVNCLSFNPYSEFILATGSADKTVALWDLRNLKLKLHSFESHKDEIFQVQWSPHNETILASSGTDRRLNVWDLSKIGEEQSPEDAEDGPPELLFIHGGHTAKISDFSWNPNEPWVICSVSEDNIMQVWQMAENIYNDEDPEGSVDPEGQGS
T1 sequence (Q6ZN18 whole entry partner): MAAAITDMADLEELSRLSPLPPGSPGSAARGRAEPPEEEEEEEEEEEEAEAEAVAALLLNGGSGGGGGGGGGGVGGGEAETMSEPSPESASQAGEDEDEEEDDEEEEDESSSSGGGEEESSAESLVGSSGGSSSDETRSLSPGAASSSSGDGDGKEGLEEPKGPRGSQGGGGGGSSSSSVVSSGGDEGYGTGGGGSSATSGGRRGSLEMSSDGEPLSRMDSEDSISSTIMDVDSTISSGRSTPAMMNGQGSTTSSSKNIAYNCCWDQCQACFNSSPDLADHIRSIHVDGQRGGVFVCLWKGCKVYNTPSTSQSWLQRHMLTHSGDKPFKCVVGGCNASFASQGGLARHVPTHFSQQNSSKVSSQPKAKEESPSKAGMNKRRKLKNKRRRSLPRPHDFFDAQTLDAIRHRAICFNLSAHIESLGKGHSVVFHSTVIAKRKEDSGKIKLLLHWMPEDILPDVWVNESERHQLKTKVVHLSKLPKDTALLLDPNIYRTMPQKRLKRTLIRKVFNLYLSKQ

Row | IC50 [nM] | SMILES
1 | 32 | CC[C@@H](C)n1cc(C)c2c(C(=O)NCc3c(C)cc(C)[nH]c3=O)cc(-c3cccc(CN(C)C)c3)cc21 [Ex 274, 6-{3-[(dimethylamino)methyl]phenyl}-N-[(4,6-dimethyl-2-oxo-1,2-dihydro-3-pyridinyl)methyl]-3-methyl-1-[(1R)-1-methylpropyl]-1H-indole-4-carboxamide]
2 | 13 | Cc1cc(C)c(CNC(=O)c2cc(-c3ccc(N4CCNC(C)(C)C4)nc3)cc3c2c(C)cn3C(C)C)c(=O)[nH]1 [Ex 339, N-[(4,6-dimethyl-2-oxo-1,2-dihydro-3-pyridinyl)methyl]-6-[6-(3,3-dimethyl-1-piperazinyl)-3-pyridinyl]-3-methyl-1-(1-methylethyl)-1H-indole-4-carboxamide]

Reference: patent US8975291B2, “Indoles” (GlaxoSmithKline LLC, priority 2010, dated 2015)
